The results in this text go back to patent US20190136188A1, “4HPR AND ITS USE IN THE CULTURING OF HEMATOPOIETIC STEM CELLS” (UNIVERSITY HEALTH NETWORK, priority 2016, published 2019).

For one assay, the system named is CB stem and prog cells. The assay is described as follows: Flow cytometry for ROS (CELLROX), mitochondrial membrane potential (TMRE), mitochondrial mass (mitotracker green). The format is cell-based, human.
A further assay relates to lin- CB cells. The assay is described as follows: RNA-sequencing gene set enrichment. Type of assay: cell-based, human. The following applies: 4HPR vs Ctrl. From the text:
RNA from 3 pools of Lin− CB cells treated with vehicle control, 4HPR, UM171+SR1 or the triple combination of 4HPR+UM171+SR1 for 2 days were subjected to RNA-sequencing without amplification on the Illumina HiSeq 2500. (A) Functional enrichment map of gene sets enriched (red) by 4HPR treatment including or enriched by Ctrl treatment (blue) at day 2.
To elucidate the genetic pathways enriched by 4HPR treatment in human CB that may contribute to preserving HSC function in ex vivo expansion alone or in combination with UM171 and SR1, we performed RNA-sequencing of 3 pools of lin-CB at day 2 and day 4 following treatment with all four treatment groups. To avoid amplification bias, RNA-seq was performed on samples without amplification. […] The latter is known to be regulated by autophagy (Singh, Nature, 2009).

Assay [1] has as its system lineage-depleted CB (lin-CB) cells. The assay is described as follows: Dose titration of 4HPR, cell viability. The format is cell-based. The settings on record: Homo sapiens, 72 h, 3 days post-treatment, read-out: concentration giving half maximal cell viability compared to vehicle control. The protocol: (§1) (A) Dose response of varying [4HPR] in CB at day 3 post-treatment showing 2 uM 4HPR gives the relative half maximal number of viable cells compared to control. All experiments following are at this 4HPR concentration unless otherwise indicated. […] (C) LC/MS was used to profile the ceramide (Cer), dihydroceramide (dhCer), sphingosine (sph), dihydrosphingosine (dhSph), S1P and dihydro-S1P (dhS1P) levels in lin− CB cells cultured for 8 days with control or 4HPR (n=2). […] (D) HSC, MPP, or GMP were sorted into methylcellulose for CFC assays in the presence of control or 4HPR and colonies were blindly scored following 10-11 days for (D) colonies/100 cells and ((E) colony distribution are shown (n=7). (F) Flow cytometry for erythroid (GlyA+) and monocytic (CD14+) markers in live cells from pooled CFC colonies were scored (n=6). (F) Relative number of colonies from CFC assays comparing the effect of 4HPR or ATRA (n=3) on sorted HSC, MPP or GMP.
However, the functional consequence of 4HPR treatment on human cord blood primitive cells is unknown. […]

For a further assay, the system named is sorted HSC, MPP or GMP. In words: Colony forming assay (CFC) in methylcellulose. The format is cell-based, human. The protocol:
as §1, with “GMP. […]” for “GMP.”
(A) Representative flow cytometry analysis of the primitive hierarchy within the CD34+ fraction of day 8 cultured lin− CB cells after the indicated treatments for CD90 and CD45RA, n=4. B) The distribution of cultured CD34+CD90+CD45RA− (cHSC), CD34+CD90−CD45RA− (cMPP), and […] for the indicated conditions at day 8 of ex vivo culture following CD34 enrichment. Statistical significance assayed through unpaired t-test relative to vehicle control (Ctrl). The relative number of colonies resulting from (C) HSC or (D) MPP grown in methylcellulose CFC assays in the presence of vehicle control (−) or the indicated combination of 2 uM 4HPR, or 35 nM UM171 or 0.5 uM SR1 at 10 days. Statistical significance is calculated via unpaired t-test relative to ctrl (black) or to the presence of absence of 4HPR treatment for UM171 or SR1.
However, the functional consequence of 4HPR treatment on human cord blood primitive cells is unknown. A dose titration of 4HPR was performed on lineage-depleted CB (lin-CB) cells and 2 uM was calculated to give half maximal cell viability at 3 days post-treatment compared to vehicle control (ctrl), a concentration reported in cell lines to antagonize DEGS1 enzymatic function, and used for all subsequent experiments unless otherwise indicated (FIG. 1A). […] Next, we utilized the colony forming assay (CFC) for in vitro progenitor function to determine if 4HPR treatment alters functional output from isolated populations of CB HSPC. […] This is unsurprising as retinoic acid signaling is a potent differentiation signal in hematopoietic cells. Thus, 4HPR inhibition of sphingolipid homeostasis selectively enhances cloning efficiency in human HSC.
Given the CD34 compartment where functional HSC should reside following ex vivo expansion is critical to blood production, we asked if there were immunophenotypic alterations following 4HPR treatment. StemRegenin-1 (SR1) or UM171 are two molecules whose action on CB has been reported to expand CD34+ cells dramatically and lead to increase reconstitution in xenotransplantation (Fares, et al Science, 2014: Boitano, Science, 2010). We sought to ask if limiting CD34+ expansion with 4HPR treatment is synergistic with these known agonists of CB ex vivo expansion. Lin− CB were cultured with these 3 small molecules alone or in combination for 8 days and the CD34 compartment was isolated and analyzed by flow cytometry further with CD90 and CD45RA to look at immunophenotypic cultured HSC (cHSC), MPP (cMPP) and committed progenitors (cProg). These populations were sorted from lin-CB at […] following expansion and transplanted into NSG mice for 16 weeks to ascertain that cProg cells are committed progenitors, while cHSC and cMPP retain multipotency following culture (FIG. 8A, B). […]

The mark [2] stands for this setting: stem and prog cells, day 2 and day 3.

As to `CC1=C(/C=C/C(C)=C/C=C/C(C)=C/C(=O)Nc2ccc(O)cc2)C(C)(C)CCC1` [4HPR, N-(4hydroxyphenyl)retinamide], in the assay with CB stem and prog cells (progenitor cells, 2 days of treatment), the mitochondrial mass result is recorded as “does decrease mitochondrial mass”. In addition, in the assay with CB stem and prog cells (setting [2]), the ROS entry is “decreased”, the mitochondrial mass result is given as “decreased” and the mitochondrial membrane potential result is “decreased”. Also, the mitochondrial mass entry in the assay with CB stem and prog cells (stem cells, 2 days of treatment) is reported as “without significantly altering mitochondrial mass in stem cells”. In the assay with CB stem and prog cells (stem cells, D3 post-treatment), the mitochondrial mass entry is “decreases mitochondrial mass by day 3 post-treatment in stem cells”. In the assay with lin- CB cells, the “ER stress and UPR gene sets” value was “upregulates ER stress and UPR gene sets”; the autophagy gene sets entry is reported as “enriched for autophagy gene sets including mitophagy”; the “ceramide/sphingolipid biosynthesis gene sets” value is reported as “enrichment of ceramide/sphingolipid biosynthesis gene sets”; the cholesterol/sterol biosynthetic pathways result is on record as “decrease in cholesterol/sterol biosythetic pathways”. In addition, the IC50 in assay [1] is 2000 nM. In the assay on sorted HSC, MPP or GMP (2 uM 4HPR in combination with either UM171 or SR1, to levels similar to 4HPR alone), the “relative cloning efficiency from HSC” value is listed as “increased relative cloning efficiency from HSC”. Moreover, in the assay with sorted HSC, MPP or GMP (HSC and MPP samples, 2 uM 4HPR), the “colony distribution (colony type)” value was “more likely to be granulocyte-macrophage (GM) colonies”. The “increase of colony output over control treatment” value with sorted HSC, MPP or GMP (HSC, 2 uM 4HPR, colonies scored after 10-11 days) was 50%. Also, the “increase of colony output over control treatment” value with sorted HSC, MPP or GMP (MPP or GMP, 2 uM 4HPR) was “but not MPP or GMP”. The “myeloid (CD14) and erythroid (GlyA) output of cells from CFC assays” value with sorted HSC, MPP or GMP (flow cytometry of pooled CFC colonies, 2 uM 4HPR) is “enhances myeloid output at the expense of erythroid differentiation”.
